Results from US9173938B2, “Combination of a purine-based CDK inhibitor with a tyrosine kinase inhibitor and use thereof in the treatment of proliferative disorders” (Cyclacel Limited, priority 2007, dated 2015).

How the values were obtained:
EGFR = conditions: H358 cells, 72 h, western blot
A549 cells = test: Cell growth (alamar blue); assay type: cell-based; conditions: Homo sapiens
cleaved PARP = test: Western blot for cleaved PARP (apoptosis marker) in H358 cells; assay type: cell-based; conditions: 72 h, range of concentrations
H460 cells = test: Cell growth (alamar blue); assay type: cell-based; conditions: Homo sapiens, NCI-H460
H358 cells [1] = test: Cell growth / drug combination analysis (alamar blue, Calcusyn); assay type: cell-based; conditions: Homo sapiens, NCI-H358
phospho-Tyr1068 EGFR = conditions: H358 cells, 72 h, western blot
phospho-ERK = test: Western blot of H358 cell lysates; assay type: cell-based; conditions: H358 cells, 72 h
cyclin D1 [2] = test: Western blot of H358 cell lysates; assay type: cell-based; conditions: H358 cells, 72 h
H292 xenograft = H292 xenograft model; assay type: in vivo, nude mice; conditions: seliciclib 50 mg bid, [1] 40 mg bid days 1-5 and 11-15; erlotinib 100 mg qd po, 50 mg from day 11
H292 cells = test: Drug combination analysis (Alamar blue, Calcusyn); conditions: 72 hours
SkBr3 cells = test: Cell growth / drug combination analysis (alamar blue, Calcusyn); assay type: cell-based; conditions: for Calcusyn combination value at 50% effective dose: in combination with Lapatinib
H358 xenograft = conditions: day 49, erlotinib 100 mg/kg po daily, 28 days; for mean tumour volume: seliciclib 50 mg/kg ip twice daily 5 days on/2 off
H358 cells [3] = test: Flow cytometry of DNA content (propidium iodide); conditions: 1×IC50, 72 h
Description: (B) The DNA content of the cells was analysed by flow cytometry after propidium iodide staining. Sub-G1 cells are those that contain less DNA than normal diploid cells. Results are representative of two independent experiments.
H358 or H1650 cells were seeded in 10 cm plates at approximately 5×10^5 cells/plate and left to settle overnight. […] After 72 h treatment, cells were harvested by trypsinisation, washed twice in PBS and then fixed overnight in 70% (v/v) ethanol at −20° C. Cells were washed twice in PBS containing 1% (w/v) BSA, then incubated with 50 μg/ml propidium iodide and 50 μg/ml ribonuclease A for 20 min at room temperature. Cells were analysed for DNA content by flow cytometry using the CellQuest programme on a Becton Dickinson LSR flow cytometer.

HER2 = test: Western blot of SkBr3 cell lysates; assay type: cell-based; conditions: SkBr3 cells, 24 h
cyclin D1 [4] = test: Western blot of SkBr3 cell lysates; assay type: cell-based; conditions: SkBr3 cells, 24 h
MCF7 cells = test: Cell growth (alamar blue); assay type: cell-based

| SMILES | effect on tumour growth (H292 xenograft) | Calcusyn combination value at 50% effective dose (H292 cells; in combination with AG1478) | Calcusyn combination value at 50% effective dose (H292 cells; in combination with Erlotinib) | Calcusyn combination value at 50% effective dose (H292 cells; in combination with Gefitinib) | Calcusyn combination value at 50% effective dose (H292 cells; in combination with Lapatinib) | other results |
| --- | --- | --- | --- | --- | --- | --- |
| COc1cc2ncnc(Nc3cccc(Cl)c3)c2cc1OC [AG1478, 4-(3-chloroanilino)-6,7-dimethoxyquinazoline] | – | – | – | – | – | level of the EGFR (EGFR): decreased the level of the EGFR in a dose-dependent manner; IC50 (A549 cells): 6.6 µM; PARP cleavage (cleaved PARP): no increase in PARP cleavage; IC50 (H460 cells): 10.4 µM; IC50 (H358 cells [1]): 4 µM; EGFR phosphorylation (phospho-Tyr1068 EGFR): dose-dependent decrease; ERK phosphorylation (phospho-ERK): stimulated ERK phosphorylation at low concentrations; cyclin D1 levels (cyclin D1 [2]): very little effect |
| CC[C@@H](Nc1nc(NCc2cccnc2)c2ncn(C(C)C)c2n1)C(C)(C)O [[1], (3R)-3-{9-isopropyl-6-[(pyridin-3-ylmethyl)-amino]-9H-purin-2-ylamino}-2-methyl-pentan-2-ol] | minimal if any effect on tumour growth | 0.42 | 0.71 | 0.50 | 0.69 | – |
| CC[C@H](Nc1nc(NCc2cccnc2)c2ncn(C(C)C)c2n1)C(C)(C)O [[2], (3S)-3-{9-isopropyl-6-[(pyridin-3-ylmethyl)-amino]-9H-purin-2-ylamino}-2-methyl-pentan-2-ol] | – | 0.26 | 0.62 | 0.54 | 0.79 | – |
| CC[C@H](Nc1nc(NCc2cccnc2)c2ncn(C(C)C)c2n1)[C@@H](C)O [[3], (2R3S)-3-{9-isopropyl-6-[(pyridine-3-ylmethyl)-amino]-9H-purin-2-ylamino}-pentan-2-ol] | – | 0.31 | 0.68 | 0.49 | 0.76 | – |
| CC[C@H](Nc1nc(NCc2cnc(C)cc2C)c2ncn(C(C)C)c2n1)[C@@H](C)O [[4]] | – | 0.36 | 0.87 | 0.55 | 0.59 | Calcusyn combination value at 50% effective dose (SkBr3 cells): 0.67 |
| C#Cc1cccc(Nc2ncnc3cc(OCCOC)c(OCCOC)cc23)c1 [erlotinib] | moderately effective | – | – | – | – | mean tumour volume (H358 xenograft): 444 mm^3; tumour growth inhibition (H358 xenograft; seliciclib 50 mg/kg ip twice daily): 44% |
| CC[C@H](CO)Nc1nc(NCc2ccccc2)c2ncn(C(C)C)c2n1 [seliciclib, 2-(1-R-hydroxymethylpropylamino)-6-benzylamino-9-isopropylpurine] | minimal if any effect on tumour growth | 0.38 | 0.68 | 0.53 | 0.57 | level of the EGFR (EGFR): decreased the level of the EGFR in a dose-dependent manner; PARP cleavage (cleaved PARP): dose-dependent increase in cleaved PARP; G2/M phase cells (H358 cells [3]): characteristic increase in G2/M phase cells; HER2 levels (HER2): decreased HER2 levels in a dose-dependent manner; IC70 (growth inhibition) (SkBr3 cells): 20.4 µM; Calcusyn combination value at 50% effective dose (SkBr3 cells): 0.72; cyclin D1 levels (cyclin D1 [4]): significantly decreased cyclin D1 levels in a dose-dependent manner; EGFR phosphorylation (phospho-Tyr1068 EGFR): limited effect; ERK phosphorylation (phospho-ERK): no significant effect; cyclin D1 levels (cyclin D1 [2]): modest decrease; IC70 (growth inhibition) (MCF7 cells): 15.4 µM; mean tumour volume (H358 xenograft): 717 mm^3 |
